Laboratory results: publication PMC6617451, “Dual Kit/Aur Inhibitors as Chemosensitizing Agents for the Treatment of Melanoma: Design, Synthesis, Docking Studies and Functional Investigation” (Scientific Reports, 2019)
“And” between values parts separate entries of the source, which are not always exact repeats. Equal entries are not always repeated.

What was measured:
A2058 cell line = test: Proliferation assay, A2058 melanoma cells (single agents and combination, Chou-Talalay); type: cell-based, human; conditions: for Dose Reduction Index (DRI) 6a + vemurafenib: DRI of each drug in the combination
Description: (§1) Compound 6a, merging the best inhibitory profile against the target c-Kit/AurB kinases, was tested on the human A2058 (American Type Culture Collection, Manassas, USA) and WM266-4 (European Collection of Authenticated Cell Cultures, Salisbury, UK) cell lines, chosen as representative of BRAF-mutated melanoma cell lines, to investigate its anti-proliferative efficacy. […]. Vemurafenib, the BRAF V600E inhibitor currently used for the treatment of inoperable, metastatic melanoma, was used as the reference compound. […] The level of possible interaction between the two kinase inhibitors, synergistic, additive or antagonist in nature, was determined by the method of Chou-Talaly[38] and quantitated through the combination index (CI), calculated exploiting the following multiple drug-effect Eq. (1)1 CI=[(D)1/(Dx)1]+[(D)2/(Dx)2] and referred to as synergism, additive effect and antagonism when CI < 1, CI = 1 and CI > 1, respectively.
(§2) The Dose Reduction Index (DRI) was calculated as well, to assess the theoretical magnitude of concentration reduction allowed for the two drugs when given in synergistic combination in vitro to achieve the same effect as that obtained with the concentration of each single agent. DRI was calculated by the following Eq. (2):2 (DRI)=(Dx)/(D)
(§3) Test compounds 6a and vemurafenib were dissolved in a stock solution of 10 mM in 100% dimethylsulfoxide (DMSO) for in vitro studies. DMSO concentration in the control’s media was the same used to make up the highest concentration of test compounds in growth media for the same experiment. In vitro chemosensitivity was tested on melanoma WM266-4 and A2058 cell lines. Cells were grown in EMEM and DMEM media, respectively, plated in sterile 24-well plastic plates and treated for 72 h (using 10^3 cells/well in 1 mL of medium) with added 6a (range of 1–100 μM), or vemurafenib (0.0001–100 μM) alone. The synergistic effect between 6a and vemurafenib was calculated with the method of Chou-Talaly[38] based on the multiple drug-effect equation and quantitated by the combination index (CI) and the dose reduction index (DRI), where CI < 1 and DRI > 1 indicate synergism. At the end of the experiment, cells were harvested with trypsin/EDTA, and viable cells were quantified using the automatic cell counter ADAM MC Digital B (Twin Helix, Milano, Italy). The data are presented as the percentage of vehicle-treated cells. […] All experiments were repeated independently three times with at least nine samples for each concentration.

AurC = target: T1, AurC (Homo sapiens, UniProt Q9UQB9); test: Protein kinase inhibitory assay, AurC; type: biochemical; conditions: 10 μM test compound
T1 construct: purchased ThermoFisher Scientific
T1 sequence (Q9UQB9 1-309): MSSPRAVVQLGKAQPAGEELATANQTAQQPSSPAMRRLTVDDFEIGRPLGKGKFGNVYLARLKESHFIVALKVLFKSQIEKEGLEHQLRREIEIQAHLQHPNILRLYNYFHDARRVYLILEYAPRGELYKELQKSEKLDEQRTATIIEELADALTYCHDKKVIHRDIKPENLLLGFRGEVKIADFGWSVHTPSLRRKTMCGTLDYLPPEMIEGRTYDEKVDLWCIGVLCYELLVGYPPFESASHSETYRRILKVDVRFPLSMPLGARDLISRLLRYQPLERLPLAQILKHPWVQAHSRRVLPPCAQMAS
Description: (§4) Cell culture media EMEM and DMEM, fetal bovine serum (FBS), L-glutamine, and antibiotics were from Sigma-Aldrich St. Louis, MO, USA). Vemurafenib was purchased from Selleckchem (Munich, Germany). Human recombinant protein kinases and Protein kinase assay kits were from ThermoFisher Scientific (MA, US). Plastics were supplied by Sarstedt (Verona, Italy).
(§5) Inhibitory assays were performed in accordance with a previously reported procedure, standardized for RET and VEGFR2[28],[41]. Test compounds were dissolved in 100% DMSO and diluted to the appropriate concentrations with the reaction buffer, provided by the kit. […] The inhibitory effect of the novel compounds was routinely estimated at 10 μM concentration.

WM266-4 cell line = test: Proliferation assay, WM266-4 melanoma cells (single agents and combination, Chou-Talalay); type: cell-based, human; conditions: for Dose Reduction Index (DRI) 6a + vemurafenib: DRI of each drug in the combination
Description: as §1, §2, §3

AurA = target: T2, AurA (Homo sapiens, UniProt O14965); test: Protein kinase inhibitory assay, AurA; type: biochemical; conditions: 10 μM test compound
T2 construct: purchased ThermoFisher Scientific
T2 sequence (O14965 1-403): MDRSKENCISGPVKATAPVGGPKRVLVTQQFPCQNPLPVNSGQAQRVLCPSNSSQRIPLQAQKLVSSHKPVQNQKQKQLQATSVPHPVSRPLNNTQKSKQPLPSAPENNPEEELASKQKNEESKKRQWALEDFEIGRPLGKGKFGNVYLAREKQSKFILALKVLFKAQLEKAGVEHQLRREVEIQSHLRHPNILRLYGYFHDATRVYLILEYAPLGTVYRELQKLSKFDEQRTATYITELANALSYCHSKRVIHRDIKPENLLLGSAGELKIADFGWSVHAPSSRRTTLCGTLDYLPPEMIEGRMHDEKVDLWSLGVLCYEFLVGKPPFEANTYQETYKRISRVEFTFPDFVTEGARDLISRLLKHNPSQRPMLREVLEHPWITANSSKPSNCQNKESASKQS

c-Kit phosphorylation = target: T3, c-Kit phosphorylation (Homo sapiens, UniProt P10721); test: c-Kit phosphorylation ELISA assay in melanoma cells; type: cell-based; conditions: WM266-4 and A2058 cells, 6a 10 μM, 72 h, vs vehicle-treated
T3 construct: endogenous in cells; host or cells: WM266-4 and A2058 human melanoma cells
T3 sequence (P10721 26-976): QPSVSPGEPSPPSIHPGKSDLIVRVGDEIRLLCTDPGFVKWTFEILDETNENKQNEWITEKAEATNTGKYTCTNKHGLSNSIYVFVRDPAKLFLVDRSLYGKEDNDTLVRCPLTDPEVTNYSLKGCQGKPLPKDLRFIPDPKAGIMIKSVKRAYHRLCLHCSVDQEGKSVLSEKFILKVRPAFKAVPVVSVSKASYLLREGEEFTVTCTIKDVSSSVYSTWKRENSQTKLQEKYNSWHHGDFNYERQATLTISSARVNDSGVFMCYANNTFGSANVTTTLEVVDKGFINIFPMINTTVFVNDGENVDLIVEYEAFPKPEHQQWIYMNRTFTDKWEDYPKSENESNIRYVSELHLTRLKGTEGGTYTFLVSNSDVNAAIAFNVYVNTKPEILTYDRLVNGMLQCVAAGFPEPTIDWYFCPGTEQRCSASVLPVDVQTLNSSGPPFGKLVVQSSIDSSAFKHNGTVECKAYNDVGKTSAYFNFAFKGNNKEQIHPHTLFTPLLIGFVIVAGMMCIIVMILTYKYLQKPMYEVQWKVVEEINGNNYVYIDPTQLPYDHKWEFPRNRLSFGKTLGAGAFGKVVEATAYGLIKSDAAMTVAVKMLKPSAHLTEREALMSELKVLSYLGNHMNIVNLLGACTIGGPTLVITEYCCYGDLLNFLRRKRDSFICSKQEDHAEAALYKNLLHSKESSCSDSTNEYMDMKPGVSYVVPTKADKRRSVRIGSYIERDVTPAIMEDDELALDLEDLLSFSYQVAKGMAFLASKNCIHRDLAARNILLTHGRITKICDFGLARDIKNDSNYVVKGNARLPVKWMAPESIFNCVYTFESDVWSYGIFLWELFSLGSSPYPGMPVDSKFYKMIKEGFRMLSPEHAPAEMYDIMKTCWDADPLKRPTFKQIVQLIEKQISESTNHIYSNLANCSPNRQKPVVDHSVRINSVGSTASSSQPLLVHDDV
Description: (§6) WM266-4 and A2058 cells (5 × 10^4 cells/well) were treated for 72 h with compound 6a (10 μM) or with vehicle alone. To measure phospho c-Kit and phospho AurB, at the end of the experiment, the cells were harvested and immediately frozen with liquid nitrogen. Cells were then lysed and the total protein was measured. In each sample, an equal amount of proteins was then assayed for human c-Kit and AurB phosporylation by the Human Phospho-CD117/c-kit ELISA Kit (Assaysolution; Woburn, MA, USA) and the AurB (Phospho-Thr232) ELISA Kit (Aviva System Biology; San Diego, CA, USA) and normalized by total protein c-Kit and AurB concentration measured by c-Kit and AurB ELISA kits, respectively. The optical density was determined using the microplate reader Multiskan Spectrum set to 450 nm. All experiments were repeated, independently, six times with at least nine samples for each concentration. The data were expressed as the ratio of phosphorylated c-Kit or AurB/total c-Kit or AurB.

AurB phosphorylation = target: T4, AurB phosphorylation (Homo sapiens, UniProt Q96GD4); test: AurB phosphorylation (Phospho-Thr232) ELISA assay in melanoma cells; type: cell-based; conditions: WM266-4 and A2058 cells, 6a 10 μM, 72 h, vs vehicle-treated
T4 construct: endogenous in cells; host or cells: WM266-4 and A2058 human melanoma cells
T4 sequence (Q96GD4 whole entry): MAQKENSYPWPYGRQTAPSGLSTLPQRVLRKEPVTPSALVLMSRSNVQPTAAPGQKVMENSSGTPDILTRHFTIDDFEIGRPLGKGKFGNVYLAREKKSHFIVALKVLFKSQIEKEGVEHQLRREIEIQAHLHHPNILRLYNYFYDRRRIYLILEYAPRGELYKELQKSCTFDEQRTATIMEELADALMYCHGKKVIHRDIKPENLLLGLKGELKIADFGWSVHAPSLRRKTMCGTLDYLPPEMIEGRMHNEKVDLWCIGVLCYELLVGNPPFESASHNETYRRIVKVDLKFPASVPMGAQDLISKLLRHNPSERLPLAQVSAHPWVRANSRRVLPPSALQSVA
Description: as §6

AurB = target: T5, AurB (Homo sapiens, UniProt Q96GD4); test: Protein kinase inhibitory assay, AurB; type: biochemical; conditions: 10 μM test compound
T5 construct: purchased ThermoFisher Scientific
T5 sequence (Q96GD4 whole entry): as above
Description: as §4, §5

[1] = A2058, affected cell fraction 75%
[2] = A2058, affected cell fraction 85%
[3] = WM266-4, affected cell fraction 75%
[4] = WM266-4, affected cell fraction 85%
[5] = WM266-4, affected cell fraction 95%

Compound	percentage of kinase inhibition, AurA (AurA)	percentage of kinase inhibition, AurB (AurB)	Dose Reduction Index (DRI) 6a + vemurafenib (A2058 cell line; [1])	Dose Reduction Index (DRI) 6a + vemurafenib (A2058 cell line; [2])	Dose Reduction Index (DRI) 6a + vemurafenib (WM266-4 cell line; [3])	Dose Reduction Index (DRI) 6a + vemurafenib (WM266-4 cell line; [4])	Dose Reduction Index (DRI) 6a + vemurafenib (WM266-4 cell line; [5])	also measured
O=C(Nc1ccc(SCc2n[nH]c(-c3ccc(Br)cc3)n2)cc1)Nc1ccc(C(F)(F)F)cc1 [Compound 6g]	no inhibitory activity							
COc1ccc(NC(=O)Nc2ccc(SCc3n[nH]c(-c4ccc(Br)cc4)n3)cc2)cc1OC [Compound 6h]		no inhibitory activity						
CCCS(=O)(=O)Nc1ccc(F)c(C(=O)c2c[nH]c3ncc(-c4ccc(Cl)cc4)cc23)c1F [vemurafenib]			21.8	22.2	1.1	1.2	1.4	Dose Reduction Index (DRI) 6a + vemurafenib (A2058 cell line; A2058, affected cell fraction 95%): 22.9

Continued, in another order:

percentage of kinase inhibition, AurA (AurA)	percentage of kinase inhibition, AurB (AurB)	Compound	Dose Reduction Index (DRI) 6a + vemurafenib (A2058 cell line; [1])	Dose Reduction Index (DRI) 6a + vemurafenib (A2058 cell line; [2])	Dose Reduction Index (DRI) 6a + vemurafenib (WM266-4 cell line; [3])	Dose Reduction Index (DRI) 6a + vemurafenib (WM266-4 cell line; [4])	Dose Reduction Index (DRI) 6a + vemurafenib (WM266-4 cell line; [5])	also measured
most active of the synthesized series		O=C(Nc1ccccc1)Nc1ccc(SCc2n[nH]c(-c3ccccc3)n2)cc1 [Compound 6a, 1-phenyl-3-(4-(((3-phenyl-1H-1,2,4-triazol-5-yl)methyl)thio)phenyl)urea]	494.1	429.0	374.9	272.1	150 and 147.9	IC50 (A2058 cell line; Homo sapiens, A2058, BRAF V600D, 72 h exposure, read-out: IC50 antiproliferative activity): 11.4 µM; percentage of kinase inhibition, AurC (AurC): most effective of the whole series; IC50 (WM266-4 cell line; Homo sapiens, WM 266-4, WM266-4, BRAF V600E, 72 h exposure, read-out: IC50 antiproliferative activity): 9.65 µM; inhibition of c-Kit phosphorylation (ratio phosphorylated c-Kit/total c-Kit) (c-Kit phosphorylation): significant inhibition of c-Kit phosphorylation; quantity of the phosphorylated form of AurB (ratio phosphorylated AurB/total AurB) (AurB phosphorylation): weakly reduced
no inhibitory activity	no inhibitory activity	CN(C)c1ccc(NC(=O)Nc2ccc(SCc3n[nH]c(-c4ccc(Cl)cc4)n3)cc2)cc1 [Compound 6e]						
